Measured values: patent publication US20240252716A1, “SELF-ASSEMBLING NANOFIBROUS ULTRASHORT PEPTIDE HYDROGELS FOR VASCULAR TISSUE ENGINEERING” (KING ABDULLAH UNIVERSITY OF SCIENCE AND TECHNOLOGY, priority 2021, published 2024)
[ ]: non-standard residue; d: D form. Cha = N[C@@H](CC1CCCCC1)C(=O)O

Experiments:
[1] = test system: HUVEC cells; experiment: LIVE/DEAD staining viability of HUVEC cells cultured in peptide hydrogels; type: cell-based, Human; conditions: cultured within hydrogel; 24 h, 4 days and 7 days; versus Matrigel
Description: Viability of HUVEC cells were evaluated by using LIVE/DEAD® staining at different time points in order to assess the compatibility of peptide scaffolds with cells. In one embodiment, the viability of HUVEC cells was determined after 24 h, 4 days and 7 days of culturing within peptide scaffolds.
In FIG. 3, for living cells were stained in green by calcein AM, while dead cells were stained in red by ethidium homodimer (EthD-1).
HUVEC cells were seeded and treated with peptides according to the protocol described above. After 24 h of incubation, the media was removed and replaced with DPBS solution containing approximately […] calcein AM and […] ethidium homodimer-1 (LIVE/DEAD® Viability/Cytotoxicity Kit, Life Technologies®) and incubated for 30 min in dark. Before imaging, the staining solution was removed and fresh DPBS was added. Stained cells were imaged with ZEISS® fluorescent microscope.
(§1) HUVEC cells were encapsulated in peptide hydrogels in 96 well tissue culture plates. Peptide solution was added to the plate at 40 μL per well. HUVEC cells suspended in 2×PBS were added to each well at 40,000 cells/well and gently mixed. The final concentration of the peptide hydrogel was 1× after the addition of 2×PBS containing cells. […] At pre-determined time points, the 3D cell viability assay, live/dead assay and florescence staining were performed.

[2] = test system: HUVECs; experiment: Cell attachment of HUVECs on coverslips coated with hydrogels or Matrigel; type: cell-based, Human; conditions: after 4 hours of culture
Description: Cell attachment was evaluated by seeding HUVECs on top of coverslips coated with Matrigel® (control) and different hydrogels. After incubation for 4 hours, efficient cell extension and adhesion in both control and hydrogels can be clearly seen, and also tube-like structure can be observed, as shown in FIG. 4. Furthermore, the number of cells attached was calculated for different scaffold used.

[3] = test system: HUVEC cells; experiment: 3D cell proliferation assay (CellTiter-Glo, ATP production); type: cell-based, Human
Description: In one embodiment, HUVEC cells have higher proliferation cultured in peptides than in Matrigel®. Proliferation of cells cultured in both hydrogels and Matrigel® was evaluated by measuring the production of ATP after culturing for different period of time. The differences in ATP produced when cultured in different scaffolds was calculated.
HUVEC cells were encapsulated in peptide hydrogels in 96 well tissue culture plates. Peptide solution was added to the plate at 40 μL per well. HUVEC cells suspended in 2×PBS were added to each well at 40,000 cells/well and gently mixed. The final concentration of the peptide hydrogel was 1× after the addition of 2×PBS containing cells. Gelation occurred within 3-5 minutes and subsequently, the culture medium was added to the wells. At pre-determined time points, the 3D cell viability assay, live/dead assay and florescence staining were performed.
The CellTiter-Glo® luminescent 3D cell viability assay is a method to determine the number of viable cells in 3D hydrogels based on quantification of the ATP present, which signals the presence of metabolically active cells. After each time point, an equal amount of CellTiter-Glo® luminescent reagent was added to the same amount of media in each well. The contents were mixed for 5 minutes to digest the hydrogels and then incubated for 10 minutes. After incubation, the luminescence was recorded using a plate reader (PHERAstar® FS, Germany).

[4] = test system: HUVECs; experiment: Cytoskeletal (actin) staining with rhodamine-phalloidin; type: cell-based, Human; conditions: 24 h of culture
Description: In one embodiment, HUVECs grown in peptide scaffolds maintain their normal morphology and functionality. […] In the present disclosure, the cytoskeleton organization of HUVECs grown in the nanofibers scaffolds was visualized by staining the actin of cells with rhodamine-phalloidin. Cell morphology and the organization of actin structures of HUVECs grown in different scaffolds were compared and shown in FIG. 7.
(§2) Immunostaining was performed after 24 h of culture. In brief, the cells were fixed with 4% paraformaldehyde solution for 30 minutes and incubated in a cold cytoskeleton buffer (3 mM MgCl2, 300 mM sucrose and 0.5% Triton X-100 in PBS solution) for 10 minutes to permeabilize the cell membranes. The permeabilised cells were incubated in blocking buffer solution (5% FBS, 0.1% Tween-20, and 0.02% sodium azide in PBS) for 30 minutes at 37° C., followed by incubation with rhodamine-phalloidin (1:300) for 1 hour at 37° C. In case of endothelial cell markers, the sample incubated with Mouse anti-Endothelial Cell CD146 ( 1/500), Rabbit anti-VWF ( 1/5000) or Mouse anti-CD31 ( 1/50) for 1 hour and followed by secondary antibody. Furthermore, the cells were incubated in DAPI for 5 minutes at room temperature to counterstain the nucleus. Finally, the cells were observed and imaged using a laser scanning confocal microscope (Zeiss® LSM 710 Inverted Confocal Microscope, Germany).

[5] = test system: HUVECs; experiment: Endothelial cell marker expression (immunostaining); type: cell-based, Human; conditions: similar to that in Matrigel
Description: The functionality of HUVECs in different scaffolds was determined by the expression of universal endothelial cell markers, including CD34, CD146 and Von-Willebrand factor (vWF).
as §2

[6] = test system: HUVECs; experiment: In vitro angiogenesis study (tube-like structure formation); type: cell-based, Human; conditions: for capillary-like structure formation by HUVECs: 2-6 hours of culture, no growth factors added to peptide scaffolds; for length of tube-like structure versus Matrigel: ImageJ, peptides without growth factor; for number of junctions of tube-like structure versus Matrigel: peptide hydrogels without growth factor, Matrigel with growth factors
Description: In one embodiment, HUVEC cells form tube-like structures when cultured in peptide hydrogels. In determining the effects of peptide scaffolds in facilitating the formation of the capillary-like structure formed by HUVEC cells, there was no addition of growth factors, after cells were plated on the surfaces of IIFK (SEQ ID NO. 1) and IIZK (SEQ ID NO. 2) scaffolds and Matrigel® (control). […] However, Matrigel® scaffold contains several growth factors that stimulate capillary-like structure formation rapidly. […] Tube length and diameter were evaluated using ImageJ software. […] In our study, no growth factors were added to the peptide scaffold.
Peptide hydrogel or Matrigel® were placed in 24 well plate, and human umbilical vein endothelial cells (HUVECs) 40,000 cells/well were added on top of peptide gel or Matrigel®. The amount of solutions in each well is about 200 μl. […] Cells were then investigated using inverted microscope, and images were analyzed by Image J using Angiogenesis Analyzer.

[7] = Peptide hydrogel preparation / gelation; type: physicochemical; conditions: water, then PBS to 1x final
Source text: The solution-gel transition of both peptides (IIFK (SEQ ID NO. 1) and IIZK (SEQ ID NO. 2)) were induced by the addition of 1×PBS. Scanning electron microscopy (SEM) and transmission electron microscopy (TEM) examinations also confirmed the self-assembling nanofiber formations, as shown in FIGS. 1 and 2. The scale bars are 1 μm in FIGS. 1 and 200 nm in FIG. 2.
The tetramer self-assembling peptides Ac-IIZK (SEQ ID NO. 2)-NH2 (Ac-Ile-Val-Cha-Lys-NH2) and Ac-IIFK (SEQ ID NO. 1)-NH2 (Ac-Ile-Val-Phe-Lys-N H2) were manually synthesized by using solid phase peptide synthesis and purified to above 95% via HPLC. Amino acid and peptide content analysis were performed. Lyophilized peptide was dissolved in milliQ® water and vortexed to get a homogenous solution. Subsequently, 10×phosphate buffered saline at the final concentration of 1× was added to the peptide solution and vortexed shortly. Gelation occurred within few seconds in IIZK (SEQ ID NO. 2) at I mg/mL and IIFK (SEQ ID NO. 1) at 2 mg/mL peptide concentration.
as §1, with “mixed.” for “mixed. The final concentration of the peptide hydrogel was 1× after the addition of 2×PBS containing cells.”

Row | Substance | viability of HUVEC cells (LIVE/DEAD staining) compared to Matrigel [1] | number of attached cells versus Matrigel [2] | ATP production by HUVEC cells versus Matrigel ([3]; after 24 h of culture) | ATP production by HUVEC cells versus Matrigel ([3]; after 7 day of culture) | cell morphology and actin organization [4] | expression of endothelial cell markers CD34, CD146 and vWF [5] | capillary-like structure formation by HUVECs [6] | length of tube-like structure versus Matrigel [6] | number of junctions of tube-like structure versus Matrigel [6] | peptide concentration at which gelation occurred within few seconds [7]
1 | Ac-Ile-Val-Phe-Lys-N H2 [IIFK] | higher viability | no significant difference | no significant difference | significantly higher | fibroblastic morphology | well expressed | formed capillary-like structure networks | no significant difference | comparable | 2 mg/mL
2 | Ac-IV[Cha]K-NH2 [IIZK] | higher viability | no significant difference | no significant difference | significantly higher | fibroblastic morphology | well expressed | formed capillary-like structure networks | no significant difference | comparable | 
